Measured values: PubChem BioAssay (NCI)
Where “and” joins values, the source holds several entries; their conditions need not be identical. Equal values may be shown once.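 In this assay, cells in 96-well plates receive the compound at five concentrations for 48 hours. Endpoints are linearly interpolated between the surrounding concentrations. The concentration for 50% growth inhibition is given as GI50. TGI is the concentration that stops growth completely.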

Tests used:
Test in all cases: NCI tumour cell line growth inhibition, 48 h
786-0 renal = test system: 786-0 renal
SNB-75 CNS = test system: SNB-75 CNS
OVCAR-4 ovarian = test system: OVCAR-4 ovarian
NCI-H23 lung = test system: NCI-H23 lung
TK-10 renal = test system: TK-10 renal
SF-268 CNS = test system: SF-268 CNS
M14 melanoma = test system: M14 melanoma
NCI-H460 lung = test system: NCI-H460 lung
HT29 colon = test system: HT29 colon
NCI-H226 lung = test system: NCI-H226 lung
LOX IMVI melanoma = test system: LOX IMVI melanoma

Structure (SMILES) | TGI (786-0 renal) [µM] | TGI (SNB-75 CNS) | TGI (OVCAR-4 ovarian) | TGI (NCI-H23 lung) | TGI (TK-10 renal) [µM] | TGI (SF-268 CNS) | TGI (M14 melanoma) [µM] | TGI (NCI-H460 lung) | TGI (HT29 colon) | TGI (NCI-H226 lung) | TGI (LOX IMVI melanoma) | GI50 (SNB-75 CNS) [µM] | GI50 (OVCAR-4 ovarian) [µM] | GI50 (NCI-H23 lung) [µM] | GI50 (SF-268 CNS) | GI50 (NCI-H460 lung) | GI50 (HT29 colon) [µM] | GI50 (NCI-H226 lung) [µM] | GI50 (LOX IMVI melanoma) [µM]
O=C1c2ccccc2C2C1N2C(=O)C(F)(F)F (configuration not stated) | > 100 | > 100 µM | > 100 µM | > 100 µM | > 100 | > 100 µM | > 100 | > 100 µM | > 100 µM | > 100 µM | > 100 µM | – | – | – | – | – | – | – | –
Oc1ccc(-c2nc(-c3cccnc3)c(-c3ccc(F)cc3)[nH]2)cc1 | 59 | 35 µM | 52.7 µM | 25.5 µM | 36.2 | 49.8 µM | 32.9 | 63.9 µM | 32.5 µM | 46.8 µM | 28.5 µM | – | – | – | – | – | – | – | –
CC1=CC2C(O1)C1C(=O)C=CC(=O)C1=CC2[N+](=O)[O-] (configuration not stated) | 27.6 | > 68.1 µM | 31.6 µM | 48.3 µM | 30.6 | 29.3 µM | 29.4 | 36.4 µM | 45.7 µM | > 100 µM | > 52.3 µM | – | – | – | – | – | – | – | –
Cc1c2cnccc2c(C)c2c1c1ccccc1n2CCCN | 0.564 | 1.48 µM and 0.368 µM | 0.665 µM and 0.246 µM | 1.18 µM and 0.482 µM | 1.83 | 0.879 µM and 0.583 µM | 0.91 | 0.335 µM and 0.22 µM | 1.01 µM and 0.292 µM | 1.86 µM and 2.78 µM | 0.402 µM and 0.569 µM | 0.169 | 0.0661 | 0.165 | 0.2 µM and 0.141 µM | 0.113 µM and 0.0472 µM | 0.0277 | 1.18 | 0.163
O=C(NNC(=O)c1ccccc1SSc1ccccc1C(=O)NNC(=O)c1ccccc1S)c1ccccc1S | 98 | > 49.8 µM | > 100 µM | 62.2 µM | > 100 | > 52.5 µM | > 100 | > 100 µM | > 95.2 µM | > 100 µM | > 100 µM | – | – | – | – | – | – | – | –
Cc1nc(C(N)=S)sc1/C(CC(=O)C(=O)Nc1cccc2ccc(O)cc12)=N\NC(=O)c1ccncc1 | > 100 | > 100 µM | > 100 µM | > 100 µM | > 100 | > 100 µM | > 100 | 64.6 µM | > 100 µM | > 100 µM | > 100 µM | – | – | – | – | – | – | – | –
C[C@@]12C[C@@H](c3ccccc3O1)N1CCCCSC1=N2 | > 100 | > 100 µM | > 100 µM | > 100 µM | > 100 | > 100 µM | > 100 | > 100 µM | > 100 µM | > 100 µM | > 100 µM | – | – | – | – | – | – | – | –
C[C@]12CC[C@H](O)CC1=CC[C@@H]1C2CC[C@]2(C)C(=O)N(N)C(=O)CC12 (some centres not stated) | > 100 | > 100 µM | > 100 µM | > 100 µM | > 100 | > 100 µM | > 100 | > 100 µM | > 100 µM | > 100 µM | > 100 µM | – | – | – | – | – | – | – | –
O=C(CCC(=O)c1ccc(Cl)cc1)NO | > 100 | > 100 µM | > 100 µM | > 100 µM | > 100 | > 100 µM | > 100 | > 100 µM | > 100 µM | > 100 µM | > 100 µM | – | – | – | – | – | – | – | –
